BindingDB's records for doi:10.1016/j.bmcl.2004.01.021 (Atherogenics, 2004)
pIC50: −log10 of the molar value.

target: T1, Tumor necrosis factor receptor superfamily member 1A (Homo sapiens, UniProt P19438); assay: ChEBML_224214
T1 sequence (P19438 whole entry): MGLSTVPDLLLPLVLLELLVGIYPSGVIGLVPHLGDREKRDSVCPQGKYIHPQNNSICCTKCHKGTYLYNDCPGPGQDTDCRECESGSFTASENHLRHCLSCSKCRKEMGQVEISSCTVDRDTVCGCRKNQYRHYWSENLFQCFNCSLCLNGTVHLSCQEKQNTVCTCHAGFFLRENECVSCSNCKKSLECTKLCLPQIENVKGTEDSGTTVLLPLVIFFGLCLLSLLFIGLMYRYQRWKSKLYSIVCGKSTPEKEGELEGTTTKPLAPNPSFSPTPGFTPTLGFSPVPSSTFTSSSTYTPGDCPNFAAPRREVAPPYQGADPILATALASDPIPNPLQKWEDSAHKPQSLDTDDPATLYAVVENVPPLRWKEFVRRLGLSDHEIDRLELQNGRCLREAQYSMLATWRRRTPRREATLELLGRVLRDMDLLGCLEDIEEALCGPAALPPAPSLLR
Source text: Inhibition of TNF-alpha-induced VCAM-1 expression

| SMILES | pIC50 |
| --- | --- |
| COc1ccc(C(=O)/C=C/c2ccc(-c3cccs3)cc2)cc1OC [(E)-1-(3,4-Dimethoxy-phenyl)-3-(4-thiophen-2-yl-phenyl)-propenone] | 4.92 |
| COc1ccc(-c2cc(C)cs2)cc1/C=C/C(=O)c1ccc(OC)c(OC)c1 [(E)-1-(3,4-Dimethoxy-phenyl)-3-[2-methoxy-5-(4-methyl-thiophen-2-yl)-phenyl]-propenone] | 5.70 |
| COc1ccc(-c2ccc(C)s2)cc1/C=C/C(=O)c1ccc(OC)c(OC)c1 [(E)-1-(3,4-Dimethoxy-phenyl)-3-[2-methoxy-5-(5-methyl-thiophen-2-yl)-phenyl]-propenone] | 5.70 |
| COc1ccc(/C=C/C(=O)c2cc(C(C)(C)C)c(O)c(C(C)(C)C)c2)cc1 [(E)-1-(3,5-Di-tert-butyl-4-hydroxy-phenyl)-3-(4-methoxy-phenyl)-propenone] | < 4.30 |
| CC(C)(C)c1cc(C(=O)/C=C/c2ccccc2)cc(C(C)(C)C)c1O [(E)-1-(3,5-Di-tert-butyl-4-hydroxy-phenyl)-3-phenyl-propenone] | 4.33 |
| COc1ccc(/C=C/C(=O)c2cc(C(C)(C)C)c(OC)c(C(C)(C)C)c2)cc1 [(E)-1-(3,5-Di-tert-butyl-4-methoxy-phenyl)-3-(4-methoxy-phenyl)-propenone] | 4.77 |
| COc1c(C(C)(C)C)cc(C(=O)/C=C/c2ccccc2)cc1C(C)(C)C [(E)-1-(3,5-Di-tert-butyl-4-methoxy-phenyl)-3-phenyl-propenone] | 5.05 |
| COc1cc(OC)cc(C(=O)/C=C/c2cc(-c3cccs3)ccc2OC)c1 [(E)-1-(3,5-Dimethoxy-phenyl)-3-(2-methoxy-5-thiophen-2-yl-phenyl)-propenone] | 5.70 |
| COc1ccc(-c2cc(C(=O)/C=C/c3cc(OC)c(OC)c(OC)c3)c(OC)cc2OC)c(OC)c1 [(E)-1-(4,6,2',4'-Tetramethoxy-biphenyl-3-yl)-3-(3,4,5-trimethoxy-phenyl)-propenone] | 5.52 |
| COc1cc(/C=C/C(=O)c2cc(OC)c(OCc3ccccc3)c(OC)c2)cc(Br)c1OC [(E)-1-(4-Benzyloxy-3,5-dimethoxy-phenyl)-3-(3-bromo-4,5-dimethoxy-phenyl)-propenone] | < 4.30 |
| O=C(/C=C/c1ccc(F)c(-c2cccs2)c1)c1ccc(F)cc1 [(E)-1-(4-Fluoro-phenyl)-3-(4-fluoro-3-thiophen-2-yl-phenyl)-propenone] | 5.40 |
| COc1cc(C(=O)/C=C/c2cc(-c3cccs3)ccc2OC)ccc1O [(E)-1-(4-Hydroxy-3-methoxy-phenyl)-3-(2-methoxy-5-thiophen-2-yl-phenyl)-propenone] | 5.15 |
| COc1ccc(C(=O)/C=C/c2cc(-c3cccs3)ccc2OC)cc1 [(E)-1-(4-Methoxy-phenyl)-3-(2-methoxy-5-thiophen-2-yl-phenyl)-propenone] | 5.52 |
| COc1ccc(-c2cccs2)cc1/C=C/C(=O)c1ccc2c(c1)OCO2 [(E)-1-Benzo[1,3]dioxol-5-yl-3-(2-methoxy-5-thiophen-2-yl-phenyl)-propenone] | 5.40 |
| COc1ccc(-c2cc(C)cs2)cc1/C=C/C(=O)c1ccc2c(c1)OCO2 [(E)-1-Benzo[1,3]dioxol-5-yl-3-[2-methoxy-5-(4-methyl-thiophen-2-yl)-phenyl]-propenone] | 5.40 |
| COc1ccc(-c2ccc(C)s2)cc1/C=C/C(=O)c1ccc2c(c1)OCO2 [(E)-1-Benzo[1,3]dioxol-5-yl-3-[2-methoxy-5-(5-methyl-thiophen-2-yl)-phenyl]-propenone] | 5.52 |

| SMILES | pIC50 |
| --- | --- |
| COCCOc1c(OC)cc(C(=O)/C=C/c2cc(OC)c(OC)c(OC)c2)cc1OC [(E)-1-[3,5-Dimethoxy-4-(2-methoxy-ethoxy)-phenyl]-3-(3,4,5-trimethoxy-phenyl)-propenone] | 5.30 |
| COc1cc(/C=C/C(=O)c2cc(OC)c(OCc3cc(OC)c(OC)c(OC)c3)c(OC)c2)cc(OC)c1OC [(E)-1-[3,5-Dimethoxy-4-(3,4,5-trimethoxy-benzyloxy)-phenyl]-3-(3,4,5-trimethoxy-phenyl)-propenone] | 5.52 |
| COC1=C(c2c(OC)cc(C(=O)/C=C/c3cc(OC)c(OC)c(OC)c3)cc2OC)Oc2ccccc2O1 [(E)-1-[3,5-Dimethoxy-4-(3-methoxy-benzo[1,4]dioxin-2-yl)-phenyl]-3-(3,4,5-trimethoxy-phenyl)-propenone] | 5.70 |
| COc1ccc(COc2c(OC)cc(C(=O)/C=C/c3cc(OC)c(OC)c(OC)c3)cc2OC)cc1 [(E)-1-[3,5-Dimethoxy-4-(4-methoxy-benzyloxy)-phenyl]-3-(3,4,5-trimethoxy-phenyl)-propenone] | 6.00 |
| COc1cc(/C=C/C(=O)c2cc(OC)c(OCc3cccs3)c(OC)c2)cc(OC)c1OC [(E)-1-[3,5-Dimethoxy-4-(thiophen-2-ylmethoxy)-phenyl]-3-(3,4,5-trimethoxy-phenyl)-propenone] | 5.52 |
| COC1=C(c2ccc(C(=O)/C=C/c3cc(OC)c(OC)c(OC)c3)cc2OC)Oc2ccccc2O1 [(E)-1-[3-Methoxy-4-(3-methoxy-benzo[1,4]dioxin-2-yl)-phenyl]-3-(3,4,5-trimethoxy-phenyl)-propenone] | 5.40 |
| COc1ccc(-c2cccs2)cc1/C=C/C(=O)c1ccc(OCc2ccccn2)c(OC)c1 [(E)-1-[3-Methoxy-4-(pyridin-2-ylmethoxy)-phenyl]-3-(2-methoxy-5-thiophen-2-yl-phenyl)-propenone] | 5.52 |
| COc1ccc(-c2cccs2)cc1/C=C/C(=O)c1ccc(OCc2cccnc2)c(OC)c1 [(E)-1-[3-Methoxy-4-(pyridin-3-ylmethoxy)-phenyl]-3-(2-methoxy-5-thiophen-2-yl-phenyl)-propenone] | 5.52 |
| COc1ccc(-c2cccs2)cc1/C=C/C(=O)c1ccc(OCc2ccncc2)c(OC)c1 [(E)-1-[3-Methoxy-4-(pyridin-4-ylmethoxy)-phenyl]-3-(2-methoxy-5-thiophen-2-yl-phenyl)-propenone] | 5.40 |
| COc1ccc(COc2c(OC)cc(C(=O)/C=C/c3cc(OC)c(OC)c(OC)c3)cc2OC)cc1OC [(E)-1-[4-(3,4-Dimethoxy-benzyloxy)-3,5-dimethoxy-phenyl]-3-(3,4,5-trimethoxy-phenyl)-propenone] | 5.70 |
| COc1ccc(COc2ccc(C(=O)/C=C/c3cc(OC)c(OC)c(OC)c3)cc2OC)cc1OC [(E)-1-[4-(3,4-Dimethoxy-benzyloxy)-3-methoxy-phenyl]-3-(3,4,5-trimethoxy-phenyl)-propenone] | 5.70 |
| COc1ccc(-c2cccs2)cc1/C=C/C(=O)c1ccc(OCc2ccc(N)cc2)c(OC)c1 [(E)-1-[4-(4-Amino-benzyloxy)-3-methoxy-phenyl]-3-(2-methoxy-5-thiophen-2-yl-phenyl)-propenone] | 5.15 |
| COc1cc(/C=C/C(=O)c2cc(OC)c(OCc3ccc4c(c3)OCO4)c(OC)c2)cc(OC)c1OC [(E)-1-[4-(Benzo[1,3]dioxol-5-ylmethoxy)-3,5-dimethoxy-phenyl]-3-(3,4,5-trimethoxy-phenyl)-propenone] | 5.52 |
| COc1cc(/C=C/C(=O)c2cc(OC)c(OCc3ccco3)c(OC)c2)cc(OC)c1OC [(E)-1-[4-(Furan-2-ylmethoxy)-3,5-dimethoxy-phenyl]-3-(3,4,5-trimethoxy-phenyl)-propenone] | 5.52 |
| COc1cc(OC)c(-c2cccs2)cc1/C=C/C(=O)c1ccc(OC)c(OC)c1OC [(E)-3-(2,4-Dimethoxy-5-thiophen-2-yl-phenyl)-1-(2,3,4-trimethoxy-phenyl)-propenone] | 5.70 |
